PubChem BioAssay (NCI)
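Tested at 5 concentrations; 48 h exposure; 96-well plates; endpoints linearly interpolated, else capped at highest concentration. Here, GI50 denotes the concentration required for 50% inhibition of growth. TGI: total growth inhibition.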

Key:
Experiment in all cases: NCI anticancer screen, dose series, 48 h
HL-60(TB) leukemia = tested on: HL-60(TB) leukemia
SF-539 CNS = tested on: SF-539 CNS
SF-295 CNS = tested on: SF-295 CNS
DU-145 prostate = tested on: DU-145 prostate
SK-OV-3 ovarian = tested on: SK-OV-3 ovarian
SK-MEL-5 melanoma = tested on: SK-MEL-5 melanoma
PC-3 prostate = tested on: PC-3 prostate
SK-MEL-2 melanoma = tested on: SK-MEL-2 melanoma
OVCAR-8 ovarian = tested on: OVCAR-8 ovarian
HCT-15 colon = tested on: HCT-15 colon
HCT-116 colon = tested on: HCT-116 colon
SN12C renal = tested on: SN12C renal
IGROV1 ovarian = tested on: IGROV1 ovarian
U251 CNS = tested on: U251 CNS
NCI-H460 lung = tested on: NCI-H460 lung
EKVX NSCLC = tested on: EKVX NSCLC

| Structure (SMILES) | TGI (HL-60(TB) leukemia) [µM] | TGI (SF-539 CNS) [µM] | TGI (SF-295 CNS) [µM] | TGI (DU-145 prostate) [µM] | TGI (SK-OV-3 ovarian) [µM] | TGI (SK-MEL-5 melanoma) [µM] | TGI (PC-3 prostate) [µM] | TGI (SK-MEL-2 melanoma) [µM] | TGI (OVCAR-8 ovarian) [µM] | TGI (HCT-15 colon) [µM] | TGI (HCT-116 colon) [µM] | TGI (SN12C renal) [µM] | TGI (IGROV1 ovarian) [µM] | TGI (U251 CNS) [µM] | TGI (NCI-H460 lung) [µM] | TGI (EKVX NSCLC) [µM] | GI50 (HL-60(TB) leukemia) [µM] | GI50 (HCT-15 colon) [µM] |
| --- | --- | --- | --- | --- | --- | --- | --- | --- | --- | --- | --- | --- | --- | --- | --- | --- | --- | --- |
| N#C/C(=C\N1CCNC1=S)C(=O)c1ccc2ccccc2c1 | > 100 | > 100 | > 100 | > 100 | > 100 | > 100 | > 100 | > 100 | > 100 | > 100 | > 100 | > 100 | > 100 | > 100 | > 100 | > 100 |  |  |
| O=C(CN1CCOCC1)NC1=Nc2ncccc2C(=O)NN1 | > 10 | > 10 | > 10 | > 10 | > 10 | > 10 | > 10 | > 10 | > 10 | > 10 | > 10 | > 10 | > 10 | > 10 | > 10 | > 10 |  |  |
| OC(CCN1CCN(CCOC(c2ccc(F)cc2)c2ccc(F)cc2)CC1)c1ccccc1 (configuration not stated) | 37.3 | 25.6 | 34.6 | 32.8 | 32.5 | 21 | 26.7 | 30.1 | 25.7 | 27.1 | 26.2 | 29.4 | 27.1 | 27.8 | 35.4 | 26.1 |  |  |
| COc1ccc(/C=C/c2cc(=O)cc(/C=C/c3ccc(OC)c(O)c3)o2)cc1O | 5.02 | 3.47 | 13.3 | > 29.3 | 21.7 | 4.98 | 12.3 | 7.99 | 10.1 | 13.6 | 7 | > 33.6 | 13.3 | 4.21 | 5.73 | 13.3 |  |  |
| CCCC/C=C1\CCC(CN2CCOCC2)C1=O (configuration not stated) | 5.61 | 17.5 | 29.8 | 32.8 | 31 | 26.9 | 26.2 | 23.8 | 22.5 | 9.3 | 5.55 | 10.7 | 29.2 | 8.35 | 38.2 | 28.3 | 0.566 | 3.05 |
| COC(=O)c1ccc(/C=N/c2cc(C)nn2-c2ccccc2)cc1 | > 100 | > 100 | > 100 | > 100 | > 100 | 83.2 | > 100 | > 100 | > 100 | > 100 | > 100 | > 100 | > 100 | > 100 | 37.3 | > 100 |  |  |
| COC(=O)c1ccc(NCc2cc(O)c3ccccc3c2O)cc1 | > 28.5 | 28.6 | 19.9 | 30.3 | 31.6 | 3.15 | 33.5 | 43.2 | 93.4 | 28.8 | 38.4 | 40 | 25.5 | 40.1 | 24.5 | 48.7 |  |  |
| CC(C)Nc1n[nH]c(=O)n1C(C)C | > 100 | > 100 | > 100 | > 100 | > 100 | > 100 | > 100 | > 100 | > 100 | > 100 | > 100 | > 100 | > 100 | > 100 | > 100 | > 100 |  |  |
| CCCCC/C=C1\CCC(CN2CCOCC2)C1=O (configuration not stated) | 24.2 | 30 | 32.3 | 33.2 | 35.3 | 31.1 | 30.9 | 29.6 | 13 | 21.8 | 54.9 | 37.6 | 33 | 23.8 | 49.8 | 29.7 |  |  |
| COC(=O)c1ccccc1C1CN=NC12Cc1c(C)c3c(c(C)c1C2=O)CCC3 (configuration not stated) | > 100 | > 100 | > 100 | > 100 | > 100 | > 100 | > 100 | > 100 | > 100 | > 100 | > 100 | > 100 | > 100 | > 100 | > 100 | > 100 |  |  |
| CNC(=S)N/N=C(\C)c1ccc(OC)cc1O | > 100 | > 100 | > 100 | > 100 | > 100 | > 69.5 | > 100 | > 100 | > 100 | > 100 | > 100 | > 100 | > 100 | > 100 | > 100 | > 100 |  |  |
| COC(=O)C1=C(C(=O)OC)C2(/N=C(\Nc3ccccc3)c3ccccc3)N(c3ccc(OC)cc3)CC(c3ccccc3)N2O1 (configuration not stated) | > 100 | > 100 | > 100 | > 100 | > 100 | > 100 | > 100 | > 100 | > 100 | > 100 | > 100 | > 100 | > 100 | > 100 | > 100 | > 100 |  |  |
| COC(=O)c1c(C)cccc1C1CN=NC12Cc1c(C)cccc1C2=O (configuration not stated) | > 100 | > 100 | > 100 | > 100 | > 100 | > 100 | > 100 | > 100 | > 100 | > 100 | > 100 | > 100 | > 100 | > 100 | > 100 | 79.7 |  |  |
| CN(C)CCCNC(=O)c1cc(NC(=O)CCCn2c3ccccc3c3ccccc32)cn1C | > 100 | > 100 | > 100 | > 100 | > 100 | > 100 | > 100 | > 100 | > 100 | > 100 | > 100 | > 100 | 33.9 | > 100 | > 100 | 92 |  |  |
| S=c1scc(-c2ccc(Cl)cc2)n1OC1CCCC1 | 71.3 | 35.5 | > 100 | > 100 | > 100 | 24.4 | > 100 | 44.6 | > 100 | > 100 | > 100 | > 100 | > 100 | 39.7 | > 100 | > 100 |  |  |
| CNNC1=NS(=O)(=O)c2cc(C(=O)OC)c(Cl)cc2S1 | > 10 | > 10 | > 10 | > 10 | > 10 | > 10 | > 10 | > 10 | > 10 | > 10 | > 10 | > 10 | > 10 | > 10 | > 10 | > 10 |  |  |
| CN(C)c1ncc(-c2c[nH]c3ccccc23)nc1-c1c[nH]c2ccccc12 | > 100 | 25.3 | 6.48 | 20.9 | 20.4 | 15.9 | 13 | 12.8 | 23 | 16.4 | 12 | 5.78 | 13.5 | 11.4 | 4.99 | 10.8 |  |  |
| CC(=O)OCC1OC(Sc2nc(-c3ccc(C)cc3)c(C#N)c(=O)n2C2OC(COC(C)=O)C(OC(C)=O)C(OC(C)=O)C2OC(C)=O)C(OC(C)=O)C(OC(C)=O)C1OC(C)=O (configuration not stated) | 76.6 | > 100 | > 100 | > 100 | > 100 | > 100 | > 100 | > 100 | > 100 | > 100 | > 100 | > 100 | > 100 | > 100 | > 100 | > 100 | 25.5 |  |
| O=C(/C=C/c1ccc(O)c(O)c1)Oc1ccccc1 | 20.1 | 88.5 | 61.4 | 43.8 | > 100 | 33 | > 76.9 | 44 | 38.2 | 36.2 | 34.6 | 48.7 | 30.6 | 48.3 | 51 | > 72.9 |  |  |
| COc1ccc(C(F)(F)F)cc1NC(=O)O/N=C(/Cl)C(C)C | > 21.8 | 37 | > 66.3 | 34.3 | > 67.3 | 25.5 | 34.5 | 35.6 | 41.1 | > 30.4 | 35.4 | 32.2 | 36.2 | > 58.2 | > 64.2 | 33.6 |  |  |
| CCOc1ccccc1N=NC1C(=O)N(C(=O)CC(=O)Nc2ccccc2Cl)N=C1C (configuration not stated) | > 100 | > 100 | > 100 | > 100 | 90.3 | > 100 | > 100 | > 100 | > 100 | > 100 | > 100 | > 100 | > 100 | > 100 | > 100 | 80.9 |  |  |
| Cc1nc(SCC(=O)Nc2ccccc2)c2sc(=S)n(-c3ccccc3)c2n1 | > 10 | > 10 | > 10 | > 10 | > 10 | > 10 | > 10 | > 10 | > 10 | > 10 | > 10 | > 10 | > 10 | > 10 | > 10 | > 10 |  |  |
| COC(=O)C1=C(O)C(C(=O)OC)[C@@]2(O)[C@@H](C(=O)OC)C(c3ccc(OC(=O)/C(=C/c4ccccc4)c4ccccc4)cc3)C[C@@H]1[C@@H]2C(=O)OC (some centres not stated) | > 100 | 8.44 | > 100 | > 100 | > 100 | > 100 | > 100 | 46.2 | > 100 | > 100 | > 100 | > 100 | > 100 | > 100 | > 100 | > 100 |  |  |
| CCN(CC)CC1CCCCN1CC(=O)N1c2ccc(Br)cc2C(=O)Nc2cccnc21 (configuration not stated) | > 100 | > 100 | > 100 | > 100 | > 100 | > 100 | > 100 | > 100 | > 100 | > 100 | > 100 | > 100 | > 100 | > 100 | > 100 | > 100 |  |  |
